In patent US7015215B2, “Pyrrolo[2,1-c][1,4] benzodiazepines compounds and process thereof” (Council of Scientific and Industrial Research, priority 2003, dated 2006):

Tests used:
SF-295 = test: NCI SRB cytotoxicity, CNS SF-295; assay type: cell-based, human; settings: SF-295, CNS, 48 h
Experimental: (§1) Biological Activity: In vitro biological activity studies were carried out at National Cancer Institute (U.S.A.).
(§2) For each compound, dose response curves for each cell line were measured at a minimum of five concentrations at 10 fold dilutions. A protocol of 48 h continuous drug exposure was used, and a sulforhodamine B (SRB) protein assay was used to estimate cell viability or growth. The concentration causing 50% cell growth inhibition (GI50), total cell growth inhibition (TGI, 0% growth) and 50% cell death (LC50, −50% growth) compared with the control was calculated.

SK-MEL-2 = test: NCI SRB cytotoxicity, Melanoma SK-MEL-2; assay type: cell-based, human; settings: SK-MEL-2, Melanoma, 48 h
Experimental: as §1, §2

K-62 = test: NCI SRB cytotoxicity, Leukemia K-62; assay type: cell-based, human; settings: K-62, Leukemia, 48 h
Experimental: as §1, §2

HL-60(TB) = settings: Leukemia, 48 h, SRB
Experimental: as §1, §2

SF-539 = test: NCI SRB cytotoxicity, CNS SF-539; assay type: cell-based, human; settings: SF-539, CNS, 48 h
Experimental: as §1, §2

UACC-62 = test: NCI SRB cytotoxicity, Melanoma UACC-62; assay type: cell-based, human; settings: UACC-62, Melanoma, 48 h
Experimental: as §1, §2

HOP-92 = test: NCI SRB cytotoxicity, Non-small-cell lung HOP-92; assay type: cell-based, human; settings: HOP-92, Non-small-cell lung, 48 h
Experimental: as §1, §2

CAKI-1 = test: NCI SRB cytotoxicity, Renal CAKI-1; assay type: cell-based, human; settings: CAKI-1, Renal, 48 h
Experimental: as §1, §2

UO-31 = test: NCI SRB cytotoxicity, Renal UO-31; assay type: cell-based, human; settings: UO-31, Renal, 48 h
Experimental: as §2

SNB-19 = test: NCI SRB cytotoxicity, CNS SNB-19; assay type: cell-based, human; settings: SNB-19, CNS, 48 h
Experimental: as §1, §2

SW-620 = test: NCI SRB cytotoxicity, Colon SW-620; assay type: cell-based, human; settings: SW-620, Colon, 48 h
Experimental: as §1, §2

SN12C = test: NCI SRB cytotoxicity, Renal SN12C; assay type: cell-based, human; settings: 48 h
Experimental: as §1, §2

MCF7 = test: NCI SRB cytotoxicity, Breast MCF7; assay type: cell-based, human; settings: 48 h
Experimental: as §1, §2

786-0 = test: NCI SRB cytotoxicity, Renal 786-0; assay type: cell-based, human; settings: 786-0, Renal, 48 h
Experimental: as §1, §2

OVCAR-3 = test: NCI SRB cytotoxicity, Ovarian OVCAR-3; assay type: cell-based, human; settings: OVCAR-3, Ovarian, 48 h
Experimental: as §1, §2

RPMI-8226 = test: NCI SRB cytotoxicity, Leukemia RPMI-8226; assay type: cell-based, human; settings: RPMI-8226, Leukemia, 48 h
Experimental: as §2

HCT-116 = test: NCI SRB cytotoxicity, Colon HCT-116; assay type: cell-based, human; settings: HCT-116, Colon, 48 h
Experimental: as §1, §2

human tumor cell lines = test: NCI in vitro cytotoxicity SRB assay, mean graph midpoints over the panel; assay type: cell-based; settings: 48 h continuous exposure
Experimental: as §1, §2

SK-OV-3 = test: NCI SRB cytotoxicity, Ovarian SK-OV-3; assay type: cell-based, human; settings: SK-OV-3, Ovarian, 48 h
Experimental: as §1, §2

Structure (SMILES): COc1cc2c(cc1OCCCN1CCN(CCCOc3cc4c(cc3OC)C(=O)N3CCC[C@H]3C=N4)CC1)N=C[C@@H]1CCCN1C2=O [Compound VIb, 1,1′-{[(bispropane-1,N-diyl)piperazine]dioxy}bis[(11aS)-7-methoxy-1,2,3,11a-tetrahydro-5H-pyrrolo[2,1-c][1,4]benzodiazepin-5-one]]
- Log GI 50 (SF-295): −4.99 mol/L
- Log LC 50 (SF-295): −4.00 mol/L
- Log GI 50 (SK-MEL-2): −4.82 mol/L
- Log LC 50 (SK-MEL-2): −4.00 mol/L
- Log GI 50 (K-62): −5.76 mol/L
- Log LC 50 (K-62): −4.00 mol/L
- Log GI 50 (HL-60(TB)): −6.66 mol/L
- Log LC 50 (HL-60(TB)): −4.00 mol/L
- Log GI 50 (SF-539): −6.21 mol/L
- Log LC 50 (SF-539): −4.00 mol/L
- Log GI 50 (UACC-62): −4.68 mol/L
- Log LC 50 (UACC-62): −4.00 mol/L
- Log GI 50 (HOP-92): −6.81 mol/L
- Log LC 50 (HOP-92): −4.00 mol/L
- Log GI 50 (CAKI-1): −4.65 mol/L
- Log LC 50 (CAKI-1): −4.00 mol/L
- Log GI 50 (UO-31): −4.27 mol/L
- Log LC 50 (UO-31): −4.00 mol/L
- Log GI 50 (SNB-19): −5.06 mol/L
- Log LC 50 (SNB-19): −4.00 mol/L
- Log GI 50 (SW-620): −6.23 mol/L
- Log LC 50 (SW-620): −4.00 mol/L
- Log GI 50 (SN12C): −4.44 mol/L
- Log LC 50 (SN12C): −4.00 mol/L
- Log GI 50 (MCF7): −6.01 mol/L
- Log LC 50 (MCF7): −4.00 mol/L
- Log GI 50 (786-0): −5.30 mol/L
- Log LC 50 (786-0): −4.00 mol/L
- Log GI 50 (OVCAR-3): −5.47 mol/L
- Log LC 50 (OVCAR-3): −4.00 mol/L
- Log GI 50 (RPMI-8226): −6.73 mol/L
- Log LC 50 (RPMI-8226): −4.00 mol/L
- Log GI 50 (HCT-116): −4.92 mol/L
- Log LC 50 (HCT-116): −4.00 mol/L
- Log10 GI50 mean graph midpoint (MG_MID) (human tumor cell lines): −5.19
- Log10 LC50 mean graph midpoint (MG_MID) (human tumor cell lines): −4.01
- Log10 TGI mean graph midpoint (MG_MID) (human tumor cell lines): −4.22

Structure (SMILES): COc1cc2c(cc1OCCCCN1CCN(CCCCOc3cc4c(cc3OC)C(=O)N3CCC[C@H]3C=N4)CC1)N=C[C@@H]1CCCN1C2=O [Compound VIc, 1,1′-{[(bisbutane-1,N-diyl)piperazine]dioxy}bis[(11aS)-7-methoxy-1,2,3,11a-tetrahydro-5H-pyrrolo[2,1-c][1,4]benzodiazepin-5-one]]
- Log LC 50 (SF-295): −4.69 mol/L
- Log GI 50 (SK-MEL-2): −7.34 mol/L
- Log LC 50 (SK-MEL-2): −4.00 mol/L
- Log GI 50 (K-62): −7.63 mol/L
- Log LC 50 (K-62): −4.00 mol/L
- Log LC 50 (HL-60(TB)): −4.00 mol/L
- Log LC 50 (SF-539): −4.00 mol/L
- Log LC 50 (UACC-62): −7.35 mol/L
- Log LC 50 (HOP-92): −4.00 mol/L
- Log LC 50 (CAKI-1): −4.28 mol/L
- Log GI 50 (UO-31): −6.65 mol/L
- Log LC 50 (UO-31): −4.00 mol/L
- Log LC 50 (SNB-19): −4.44 mol/L
- Log LC 50 (SN12C): −4.00 mol/L
- Log LC 50 (SK-OV-3): −4.00 mol/L
- Log LC 50 (MCF7): −4.00 mol/L
- Log LC 50 (786-0): −4.00 mol/L
- Log GI 50 (OVCAR-3): −7.91 mol/L
- Log LC 50 (OVCAR-3): −4.00 mol/L
- Log GI 50 (RPMI-8226): −7.81 mol/L
- Log LC 50 (RPMI-8226): −4.60 mol/L
- Log GI 50 (HCT-116): −6.42 mol/L
- Log LC 50 (HCT-116): −4.00 mol/L
- Log10 GI50 mean graph midpoint (MG_MID) (human tumor cell lines): −7.70
- Log10 LC50 mean graph midpoint (MG_MID) (human tumor cell lines): −4.47
- Log10 TGI mean graph midpoint (MG_MID) (human tumor cell lines): −5.95
